Experiments:
[1] = test system: PrP^Sc in RML prion-infected mouse neuroblastoma (ScN2a-cl3) cells; type: cell-based; conditions: for antiprion activity: relative to the 4-bromophenyl amide 10
ScN2a-cl3 cells = assay: Cell viability / compound toxicity with fluorescent probe calcein-AM; type: cell-based, mouse
[2] = In vivo mouse single-dose PK, brain and plasma exposure; conditions: for brain exposure / drug levels in brain: mice, oral dosing
[3] = mouse, oral 10 mg/kg, brain, relative to 21

SMILES | Calcein AM LD50 (ScN2a-cl3 cells) | brain exposure / drug levels in brain [2] | metabolic stability in hepatic microsomal preparations | further results
CCOc1cccc(C(=O)Nc2ccc(N3CCN(C)CC3)cc2)c1 [Compound 8] |  |  |  | antiprion activity [1]: inactivity
CN1CCN(c2ccc(NC(=O)c3cccc(Br)c3)cc2)CC1 [Compound 9] |  |  |  | antiprion activity [1]: inactivity
CC(=O)c1ccc(NC(=O)c2ccc(-c3ccccc3)cc2)cc1 [Compound 14] |  |  |  | fold improvement in potency, 14 versus 6 [1]: 10 fold
CN1CCN(c2ccc(NC(=O)c3ccc(-c4ccccc4)cc3)cc2)CC1 [Compound 15] | >5000 nM |  |  | fold increase in antiprion potency over compound 7 ([1]; relative to original lead 7): 4 fold
CC(C)N1CCN(c2ccc(NC(=O)c3ccc(-c4ccccc4)cc3)cc2)CC1 [Compound 17] | >10,000 nM | excellent drug levels in the brains | excellent metabolic stability | 
CCN1CCN(c2ccc(NC(=O)c3ccc(-c4ccccn4)cc3)cc2)CC1 [Compound 20] | >10,000 nM | excellent drug levels in the brains |  | fold higher brain AUC than 21 [2, 3]: > 7 fold; fold higher brain Cmax than 21 [2, 3]: > 4 fold
CCN1CCN(c2ccc(NC(=O)c3ccc(-c4cccnc4)cc3)cc2)CC1 [Compound 21] | >10,000 nM |  |  | 
CCN1CCN(c2ccc(NC(=O)c3ccc(-c4ccncc4)cc3)cc2)CC1 [Compound 22] | >10,000 nM |  |  | 
CC(C)N1CCN(c2ccc(NC(=O)c3ccc(-c4ccccn4)cc3)cc2)CC1 [Compound 23] | >10,000 nM | much lower brain exposure than either 16 or 20 |  | 
CC(C)N1CCN(c2ccc(NC(=O)c3ccc(-c4ccccn4)cc3)nc2)CC1 [Compound 24] | >10,000 nM | excellent drug levels in the brains | excellent metabolic stability | 
CC(C)N1CCN(c2ccc(NC(=O)c3ccc(-c4ccccn4)cc3)cn2)CC1 [Compound 25] | >10,000 nM |  |  | 
CC(C)N1CCN(c2ccc(NC(=O)c3ccc(-c4ccccn4)cc3)c(F)c2)CC1 [Compound 26] | >10,000 nM | excellent drug levels in the brains | excellent metabolic stability | 
CC(C)N1CCN(c2ccc(NC(=O)c3ccc(-c4ccccn4)cc3)cc2F)CC1 [Compound 27] | >10,000 nM | excellent drug levels in the brains | excellent metabolic stability | 
